Measurements as given in ChEMBL document CHEMBL1139883, “Additional scalarane sesterterpenes from the sponge Phyllospongia papyracea” (J Nat Prod, 2007).
The source made the active and inactive calls. The rule behind the calls is not given here.

Target: T1, Catenin beta-1 (Homo sapiens) (UniProt P35222)
T1 sequence (whole entry): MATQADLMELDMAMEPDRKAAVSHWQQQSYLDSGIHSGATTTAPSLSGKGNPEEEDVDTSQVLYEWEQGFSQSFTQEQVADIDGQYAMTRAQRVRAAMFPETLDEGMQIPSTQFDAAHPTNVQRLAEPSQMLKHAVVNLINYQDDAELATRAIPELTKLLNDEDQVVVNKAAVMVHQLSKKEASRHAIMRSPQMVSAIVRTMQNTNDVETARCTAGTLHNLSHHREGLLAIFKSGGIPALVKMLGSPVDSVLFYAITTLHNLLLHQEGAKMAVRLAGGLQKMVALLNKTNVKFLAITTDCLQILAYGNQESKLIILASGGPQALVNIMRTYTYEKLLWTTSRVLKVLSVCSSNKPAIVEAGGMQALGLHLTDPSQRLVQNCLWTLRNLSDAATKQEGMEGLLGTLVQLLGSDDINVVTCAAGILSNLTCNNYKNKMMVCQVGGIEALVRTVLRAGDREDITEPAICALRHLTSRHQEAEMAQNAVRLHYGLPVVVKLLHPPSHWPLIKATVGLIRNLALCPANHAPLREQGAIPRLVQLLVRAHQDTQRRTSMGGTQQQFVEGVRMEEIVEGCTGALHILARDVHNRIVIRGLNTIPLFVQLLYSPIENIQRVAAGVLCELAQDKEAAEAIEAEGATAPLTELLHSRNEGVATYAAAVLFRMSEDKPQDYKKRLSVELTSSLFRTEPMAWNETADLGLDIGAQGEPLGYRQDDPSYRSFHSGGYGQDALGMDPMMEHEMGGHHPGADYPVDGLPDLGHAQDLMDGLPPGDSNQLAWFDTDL
Assay: Activity against beta […]/Tcf4 complex by PPI assay

| Structure (SMILES) | Activity |
| --- | --- |
| CCC(O)CC(=O)O[C@@H]1C[C@H]2[C@]3(C)CC[C@H]4[C@@](C)(CC)CCC[C@]4(C)[C@H]3C[C@H](OC(C)=O)[C@]2(C)[C@@H](C(=O)O)[C@@H]1C(C)=O (some centres not stated) | inactive |
| CC[C@@]1(C)CCC[C@]2(C)[C@H]3C[C@H](OC(C)=O)[C@]4(C)[C@@H](C(=O)O)C(C(C)=O)=CC[C@H]4[C@]3(C)CC[C@@H]12 | inactive |
| CC[C@@]1(C)CCC[C@]2(C)[C@H]3C[C@H](OC(C)=O)[C@]4(C)[C@@H](O)C(C(C)=O)=CC[C@H]4[C@]3(C)CC[C@@H]12 | inactive |
| CC[C@@]1(C)CCC[C@]2(C)[C@H]3C[C@H](OC(C)=O)[C@@]4(C)C(=CC(=O)C5=C4C(=O)OC5(C)O)[C@]3(C)CC[C@@H]12 (some centres not stated) | inactive |
| CC[C@@]1(C)CCC[C@]2(C)[C@H]3C[C@H](OC(C)=O)[C@]45C[C@@H](O)[C@H]4C(C(C)=O)=CC[C@H]5[C@]3(C)CC[C@@H]12 | inactive |
| CC[C@@]1(C)CCC[C@]2(C)[C@H]3C[C@H](OC(C)=O)[C@]4(C)C5=C(C(=O)C[C@H]4[C@]3(C)CC[C@@H]12)C(C)OC5=O (some centres not stated) | inactive |
| CC[C@@]1(C)CCC[C@]2(C)[C@H]3C[C@H](OC(C)=O)[C@]45C[C@H](O)[C@H]4C(C(C)=O)=CC[C@H]5[C@]3(C)CC[C@@H]12 | inactive |
